# Measured values taken from PubChem BioAssay (NCI).
#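 Cultured in 96-well plates, cells were exposed to test compound for 48 hours across five concentrations. GI50: concentration for 50% inhibition of growth. TGI marks complete inhibition of growth.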
# Tests used:
# Experiment in all cases: growth of human tumour cells (NCI), 48 h
# [1] = tested on: ACHN renal
# [2] = tested on: HOP-62 NSCLC
# [3] = tested on: K-562 leukemia
# [4] = tested on: MCF7 breast
# [5] = tested on: SF-295 CNS
# [6] = tested on: SNB-19 CNS
# [7] = tested on: T-47D breast
Structure (SMILES),GI50 [1] [µM],TGI [1] [µM],GI50 [2] [µM],TGI [2] [µM],GI50 [3] [µM],TGI [3] [µM],GI50 [4] [µM],TGI [4] [µM],GI50 [5] [µM],TGI [5] [µM],GI50 [6] [µM],TGI [6] [µM],GI50 [7] [µM],TGI [7] [µM]
C=CCOc1ccc2c(c1)CC[C@@H]1[C@@H]2CC[C@]2(C)C(=O)/C(=N/O)C[C@@H]12,2.58,> 37.2,6.08,> 49.3,2.88,8.61,2.72,13.2,14.6,> 68.2,11.4,> 55.1,2.64,> 40.4
Cn1cc(C2=C(c3cn(CCCN/C(N)=N\[N+](=O)[O-])c4ccccc34)C(=O)NC2=O)c2ccccc21,6.26,> 25,3.89,> 16.6,2.95,> 22.5,1.15,> 22.6,3.74,> 23.6,4.4,19,2.01,> 14.8
O=C1COCCN1c1ccc(NCc2cn(Cc3ccc(F)cc3)c3ccccc23)cc1,2.91,31.4,0.783,> 31.7,1.25,> 51.3,0.114,13,0.927,27.5,19.4,> 100,0.0522,–
COc1cccc(/C=N/[N-]C(N)=O)c1[O-].[Cu+2].c1ccncc1,–,> 100,–,52.1,–,58.5,–,–,–,62.4,–,25,–,–
Cc1cccc(C)c1NC(=O)/C(CC(=O)CC(c1ccccc1)c1c(O)c2ccccc2oc1=O)=N/O (configuration not stated),–,> 100,–,> 100,–,–,–,> 100,–,> 100,–,> 100,–,–
Nc1c(C(=O)Nc2cccc3ccccc23)sc2nc3c(cc12)CCCCCC3,2.79,> 50,5.05,> 50,0.301,> 50,0.302,> 50,1.39,> 50,2.62,> 50,25.1,> 50
COc1cc(-c2nc3cc(Cl)c(Cl)cc3[nH]2)ccc1OCC(=O)N=Nc1c(O)[nH]c2ccccc12,2.11,13.8,0.832,2.62,0.345,> 31.7,0.201,0.479,1.28,2.71,0.657,5.35,0.288,1.14
Nc1nc(-c2ccccc2Cl)cc(-c2ccc(Cl)cc2Cl)n1,10.4,> 100,8.21,> 100,3.97,> 100,3.45,> 100,–,–,16.1,> 100,6.58,> 100
CCCCCC(=O)OC[n+]1ccc(-c2c(COC(=O)NC(C)C)c(COC(=O)NC(C)C)c3n2CCC3)cc1,–,> 100,–,> 100,–,> 100,–,> 100,–,> 100,–,> 100,–,> 100
CCOc1ccc(-n2cc(-c3ccc(N(C)C)cc3)[n+]3c2CCCCC3)cc1,2.63,> 100,2.3,> 77.9,0.128,> 100,0.14,> 100,0.618,5.43,0.452,> 100,0.0692,–
c1ccc2c(c1)-c1nc3ccccc3cc1C2N1CCOCC1 (configuration not stated),–,> 100,–,> 100,–,> 100,–,> 100,–,> 100,–,> 100,–,> 100
Nc1c(S(=O)(=O)O)cc2c(c1Cl)C(=O)c1ccccc1C2=O,> 100,> 100,> 100,> 100,> 100,> 100,> 100,> 100,> 100,> 100,> 100,> 100,> 100,> 100
COc1ccc(/C=N/C2=C(C#N)C(c3ccccc3)c3ccc4ccccc4c3O2)cc1 (configuration not stated),0.69,> 100,0.373,> 100,0.23,> 100,0.425,> 100,0.314,> 100,0.54,> 100,0.493,> 100
O=C(Nc1ccc(-n2cc(-c3ccncc3)c(-c3ccc(Cl)c(O)c3)n2)cc1)c1ccc(Cl)c(C(F)(F)F)c1,1.55,5.28,0.622,2.2,0.404,4.09,1.92,8.6,0.216,0.475,4.16,> 100,3.03,> 34.9
COc1ccc(/C=C/c2cnnc3ccccc23)cc1OC,–,> 10,–,> 10,–,> 10,–,> 10,–,> 10,–,> 10,–,> 10
COc1ccc2c(c1)cn1c3ccc(OC)cc3[nH]c(=O)c21,< 0.0226,1.69,< 0.0252,1.66,–,–,–,–,< 0.0169,–,< 0.0405,7.36,1.04,2.61
Nc1c2c(c(O)c3c1=C(CO)C=N3)=NCCS2=O (configuration not stated),–,–,1.86,3.38,2.81,8.07,0.63,2.83,2.12,4.12,1.59,3.07,0.688,2.68
COc1cc(C2C(Cl)C(=O)N2NC(=O)c2ccccc2O)cc(OC)c1OC (configuration not stated),–,> 10,–,–,–,> 10,–,7.36,–,8.43,–,> 10,–,–
N=C(N)c1ccc(-c2ccc(-c3ccccc3)o2)o1,2.56,6.73,3.59,15.3,0.657,3.18,1.68,5.61,1.81,4.03,3.01,10.1,–,–
COc1ccccc1NC(=O)C(=O)C(C#N)CC(C)(C)C=O (configuration not stated),–,> 100,–,> 100,–,> 100,–,> 100,–,> 100,–,–,–,> 100
CN(CC(=O)O)Cc1c[nH]c2ccccc12,–,> 100,–,> 100,–,> 100,–,> 100,–,> 100,–,> 100,–,–
